Measurements: ChEMBL document CHEMBL1944599, “From libraries to candidate: the discovery of new ultra long-acting dibasic β₂-adrenoceptor agonists” (Bioorg Med Chem Lett, 2012)
pEC50, pIC50: −log10 of the molar value.

Assays:
[1] = target: T1, Beta-2 adrenergic receptor (Homo sapiens, UniProt P07550); test: Displacement of radiolabeled iodocyanopindolol from recombinant beta2 adrenoceptor
[2] = target: T2, Alpha-1D adrenergic receptor (Homo sapiens, UniProt P25100); test: Displacement of radiolabeled Prazosin from alpha1D adrenoceptor
T2 sequence (P25100 whole entry): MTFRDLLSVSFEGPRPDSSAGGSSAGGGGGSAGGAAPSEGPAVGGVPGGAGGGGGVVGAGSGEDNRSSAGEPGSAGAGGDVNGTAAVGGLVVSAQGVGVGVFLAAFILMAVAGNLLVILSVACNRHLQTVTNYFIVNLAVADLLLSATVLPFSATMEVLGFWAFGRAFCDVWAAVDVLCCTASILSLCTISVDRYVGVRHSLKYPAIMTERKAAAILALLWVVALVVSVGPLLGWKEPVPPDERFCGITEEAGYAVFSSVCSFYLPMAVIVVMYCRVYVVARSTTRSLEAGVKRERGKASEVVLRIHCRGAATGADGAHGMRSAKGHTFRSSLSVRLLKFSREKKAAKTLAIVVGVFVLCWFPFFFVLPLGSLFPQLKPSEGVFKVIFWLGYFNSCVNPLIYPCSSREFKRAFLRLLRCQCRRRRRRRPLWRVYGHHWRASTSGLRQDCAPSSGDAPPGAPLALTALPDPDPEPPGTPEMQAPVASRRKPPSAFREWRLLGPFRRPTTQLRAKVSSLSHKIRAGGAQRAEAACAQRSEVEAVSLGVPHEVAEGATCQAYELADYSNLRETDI

[3] = target: T1, Beta-2 adrenergic receptor; test: Agonist activity at human beta2 adrenoceptor expressed in H292 cells assessed as increase in cAMP accumulation after 60 mins by spectrophotometry; type: functional, cell-based
[4] = target: Beta-1 adrenergic receptor (Homo sapiens, UniProt P08588); test: Displacement of radiolabeled iodocyanopindolol from beta1 adrenoceptor
Beta-1 adrenergic receptor, sequence (P08588 whole entry): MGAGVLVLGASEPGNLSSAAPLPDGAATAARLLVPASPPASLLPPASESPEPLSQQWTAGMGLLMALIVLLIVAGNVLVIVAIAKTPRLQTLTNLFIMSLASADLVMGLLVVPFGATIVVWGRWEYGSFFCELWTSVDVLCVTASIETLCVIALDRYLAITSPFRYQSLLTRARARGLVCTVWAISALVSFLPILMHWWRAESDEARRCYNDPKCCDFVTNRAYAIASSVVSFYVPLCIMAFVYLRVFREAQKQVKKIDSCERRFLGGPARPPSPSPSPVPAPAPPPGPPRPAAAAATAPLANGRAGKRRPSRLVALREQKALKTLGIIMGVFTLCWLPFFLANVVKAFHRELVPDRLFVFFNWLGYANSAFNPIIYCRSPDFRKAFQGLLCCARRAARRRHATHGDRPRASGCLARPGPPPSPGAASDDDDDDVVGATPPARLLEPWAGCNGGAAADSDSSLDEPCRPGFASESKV

D(2) dopamine receptor = D(2) dopamine receptor (Homo sapiens, UniProt P14416); test: Displacement of radiolabeled spiperone from dopamine D2 receptor
D(2) dopamine receptor, sequence (P14416 whole entry): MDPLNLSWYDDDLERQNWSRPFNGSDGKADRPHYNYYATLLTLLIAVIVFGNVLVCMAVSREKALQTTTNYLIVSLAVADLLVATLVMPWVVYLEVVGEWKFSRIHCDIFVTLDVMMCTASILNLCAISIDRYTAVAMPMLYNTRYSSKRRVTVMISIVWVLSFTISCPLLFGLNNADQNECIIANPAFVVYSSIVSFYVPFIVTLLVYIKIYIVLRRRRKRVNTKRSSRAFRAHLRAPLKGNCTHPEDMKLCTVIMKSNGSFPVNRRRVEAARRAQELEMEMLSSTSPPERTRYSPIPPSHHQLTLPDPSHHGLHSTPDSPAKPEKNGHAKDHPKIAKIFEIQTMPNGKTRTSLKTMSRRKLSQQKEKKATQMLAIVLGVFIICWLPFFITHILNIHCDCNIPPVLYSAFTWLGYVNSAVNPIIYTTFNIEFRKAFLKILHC

physchem = details: 1-octanol/aqueous buffer, pH 7.4

T1 sequence (P07550 whole entry): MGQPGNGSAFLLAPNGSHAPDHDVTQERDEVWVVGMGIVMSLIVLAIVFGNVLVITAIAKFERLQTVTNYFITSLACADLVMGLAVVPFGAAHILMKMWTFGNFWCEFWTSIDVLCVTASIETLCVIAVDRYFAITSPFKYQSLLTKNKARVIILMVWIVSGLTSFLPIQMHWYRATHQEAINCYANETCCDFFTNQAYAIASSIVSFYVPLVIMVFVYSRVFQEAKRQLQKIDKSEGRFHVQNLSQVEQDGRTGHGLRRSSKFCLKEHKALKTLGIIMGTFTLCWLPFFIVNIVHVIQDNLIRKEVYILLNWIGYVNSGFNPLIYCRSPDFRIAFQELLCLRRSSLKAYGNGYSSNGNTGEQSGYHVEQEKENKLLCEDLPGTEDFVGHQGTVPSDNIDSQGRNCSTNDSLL

SMILES	pIC50 [1]	pIC50 [2]	pEC50 [3]	pIC50 [4]	pIC50 (D(2) dopamine receptor)	logD (physchem)
O=c1[nH]c2c(O)ccc(CCNCCc3ccc(-c4cccc(CN5Cc6ccccc6C5)c4)cc3)c2s1	7.80	–	–	–	–	–
CCOc1ccccc1CNCc1cccc(CCNC[C@H](O)c2ccc(O)c3[nH]c(=O)sc23)c1	7.60	7.50	8.50	7.00	5.90	–
O=c1[nH]c2c(O)ccc(CCNCCc3ccc(CNCCc4ccccn4)cc3)c2s1	7.00	–	6.80	–	–	–
O=c1[nH]c2c(O)ccc(CCNCCc3ccc(CNCCc4ccccc4F)cc3)c2s1	5.90	–	7.10	–	–	–
COc1ccccc1CCNCc1ccc(CCNC[C@H](O)c2ccc(O)c3[nH]c(=O)sc23)cc1	8.70	8.10	9.50	6.50	6.20	–
OCc1cc([C@@H](O)CNCCc2ccc(CNCCc3ccccc3)cc2)ccc1O	6.20	6.30	7.50	< 5.50	< 5.10	–
O=c1[nH]c2c(O)ccc(CCNCCc3cccc(CNCCc4c(Cl)cccc4Cl)c3)c2s1	9.20	–	–	–	–	–
COc1ccccc1CNCc1ccc(CCNC[C@@H](O)c2ccc(O)c3[nH]c(=O)sc23)cc1	6.60	7.10	8.10	5.90	5.70	–
O=c1[nH]c2c(O)ccc(CCNCCc3cccc(CN4CCC(c5ccccc5)CC4)c3)c2s1	7.50	–	–	–	–	–
COc1ccccc1CCNCc1ccc(CCNCCc2ccc(O)c3[nH]c(=O)sc23)cc1	6.70	–	–	–	–	–
O=c1[nH]c2c(O)ccc([C@@H](O)CNCCc3cccc(CNCCCc4ccccn4)c3)c2s1	9.30	6.60	9.00	7.20	< 5.60	–
O=c1[nH]c2c(O)ccc(CCNCCc3ccc(CNCCc4c(Cl)cccc4Cl)cc3)c2s1	6.30	–	7.00	–	–	–
O=c1[nH]c2c(O)ccc(CCNCCc3ccc(CN4CC[C@@H](Oc5ccc(Cl)cc5)C4)cc3)c2s1	6.90	–	6.80	–	–	–
O=c1[nH]c2c(O)ccc([C@@H](O)CNCCc3cccc(CN4CCC(c5ccccc5)CC4)c3)c2s1	8.40	–	9.00	–	–	–
CC(Cc1cccc(CNCCc2c(Cl)cccc2Cl)c1)NC[C@H](O)c1ccc(O)c2[nH]c(=O)sc12 (stereo partly drawn)	–	7.40	–	7.70	6.90	2.4
C[C@@H](NCc1ccccc1-c1ccc(CCNC[C@H](O)c2ccc(O)c3[nH]c(=O)sc23)cc1)c1ccccc1	8.70	–	8.40	–	–	–
CCN(Cc1ccncc1)Cc1cccc(-c2ccc(CCNCCc3ccc(O)c4[nH]c(=O)sc34)cc2)c1	6.10	–	6.50	–	–	–
O=c1ccc2c([C@@H](O)CNCCc3cccc(CNCCc4ccccn4)c3)ccc(O)c2[nH]1	7.20	6.40	8.60	5.50	< 5.00	–
COc1ccccc1CNCCc1cccc(CCNC[C@H](O)c2ccc(O)c3[nH]c(=O)sc23)c1	–	7.60	–	7.20	6.00	0.9
O=c1[nH]c2c(O)ccc(CCNCCc3cccc(CN[C@H]4C[C@@H]4c4ccccc4)c3)c2s1	7.90	–	8.40	–	–	–
O=c1[nH]c2c(O)ccc([C@@H](O)CNCCCc3cccc(CNCCc4c(Cl)cccc4Cl)c3)c2s1	8.20	7.40	8.90	8.10	7.10	–
O=c1[nH]c2c(O)ccc([C@@H](O)CNCCc3ccc(CNCCc4ccccn4)cc3)c2s1	–	7.60	–	< 6.10	5.60	-0.3
O=c1[nH]c2c(O)ccc([C@@H](O)CNCCc3cccc(CNCc4ccccn4)c3)c2s1	–	6.50	–	7.10	5.30	–
O=c1[nH]c2c(O)ccc([C@@H](O)CNCCc3ccc(-c4cccc(CN5Cc6ccccc6C5)c4)cc3)c2s1	7.20	–	8.00	–	–	–
O=c1[nH]c2c(O)ccc([C@@H](O)CNCCc3ccc(CN4CCCC4)cc3)c2s1	–	–	7.40	–	–	–
